# Assay results from patent US20120309821A1, “Use of epigallocatechin-3-gallate for immune regulation” (NATIONAL DEFENSE MEDICAL CENTER, priority 2011, published 2012).
# Key:
# Format in all cases: in vivo, mouse
# [1] = test system: NZB/W F1 lupus-prone mice; assay: Kidney histopathological evaluation (H&E); conditions: 120 mg/kg by gavage daily; week 34; H&E kidney sections; vs disease control mice
# Method: (§1) Female NZB/W F1 mice were purchased from the Animal Center of the National Taiwan University (Taipei, Taiwan, ROC) and, at 12 weeks of age, were divided into two groups, one of which was given normal saline and served as the disease control, while the other was given 120 mg/kg body weight of EGCG (Ryss Lab, Inc., CA, USA) (this dose is a slight modification of those used in previous in vivo studies) by gavage daily till sacrificed at 34-weeks-old. 8-Week-old NZB/W F1 female mice (prior to onset of autoantibody production) were used as normal controls. Urine samples were collected in metabolic cages every 2 weeks and urine protein levels were measured, and serum samples were used to measure serum levels of blood urea nitrogen (BUN) and creatinine (Cr) as described previously (Ka, S. M. et al. Decoy receptor 3 ameliorates an autoimmune crescentic glomerulonephritis model in mice. J Am Soc Nephrol 18:2473-2485; 2007). All animal experiments were performed upon the ethical approval of the Institutional Animal Care and Use Committee of the National Defense Medical Center, Taiwan and according to the ethical rules in the NIH Guide for the Care and Use of Laboratory Animals. Formalin-fixed and paraffin-embedded renal sections were prepared for pathologic evaluation.
# superoxide anion = assay: Superoxide anion (ROS) levels in serum, urine and kidney; conditions: 120 mg/kg by gavage daily, week 34
# Method: as §1, with “Kidney in situ superoxide anion production was determined by dihydroethidium (DHE) labeling. Fluorescent images were quantified by counting the percentage of positive nuclei in the total nuclei per kidney cross-section. Superoxide anion levels in serum” for “Formalin-fixed”, “kidney tissues” for “paraffin-embedded renal sections”, “measured as described previously and the results expressed as reactive luminescence units (RLU) per 15 min per milligram dry weight (i.e., RLU/15 min/mg dry weight).” for “prepared for pathologic evaluation.”
# anti-dsDNA antibodies = assay: Serum anti-dsDNA antibody ELISA; conditions: 120 mg/kg by gavage daily; week 34; increase over normal control
# Method: as §1, with “[…] Serum levels of anti-dsDNA antibodies” for “All animal experiments”, “measured using an anti-mouse dsDNA enzyme-linked immunosorbent assay (ELISA) kit (Alpha Diagnostic, TX, USA)” for “performed upon the ethical approval of the Institutional Animal Care and Use Committee of the National Defense Medical Center, Taiwan and”, “manufacturer's instructions. The absorbance at 450 nm was measured using an ELISA plate reader (Bio-Tek, VT, USA).” for “ethical rules in the NIH Guide for the Care and Use of Laboratory Animals. Formalin-fixed and paraffin-embedded renal sections were prepared for pathologic evaluation.”
# Nrf2 = assay: Western blot of nuclear Nrf2 in kidney; conditions: 120 mg/kg by gavage daily, week 34, compared to disease controls
# Method: as §1, with “[…] Antibodies to histone H3 (Cell Signaling) or β-actin (Santa Cruz) were used as internal controls for the nuclear” for “Formalin-fixed”, “cytosolic target proteins, respectively.” for “paraffin-embedded renal sections were prepared for pathologic evaluation.”
substance,measurement,setting,value
Epigallocatechin-3-gallate [EGCG],"severe renal lesions (glomerular proliferation, crescents, interstitial inflammation, fibrosis)",[1],greatly reduced
same,levels of superoxide anion in the kidney,superoxide anion; kidney,inhibited
same,superoxide anion levels in the serum,superoxide anion; serum,decreased by EGCG treatment to levels similar to those in normal control mice
same,superoxide anion levels in the urine,superoxide anion; urine,decreased by EGCG treatment to levels similar to those in normal control mice
same,serum anti-dsDNA antibody levels,anti-dsDNA antibodies,not inhibited
same,Nrf2 translocation into the nucleus,Nrf2,markedly increased
